Data from patent US20240279215A1 (Cytokinetics, Incorporated, priority 2022, published 2024).

Molecular target: human NAMPT (Homo sapiens (Human), UniProt P43490)
Test: NMN fluorescence biochemical assay (human recombinant NAMPT enzyme assay)
Procedure, shortened: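 NMN formed was detected by fluorescence (Ex/Em 355/460 nm) after acetophenone, KOH and formic acid derivatization. The cell-free reaction ran 60 min at ambient temperature with 6 nM human NAMPT, 150 μM nicotinamide, 20 μM PRPP, 2.5 mM ATP, pH 7.2 HEPES, and compound dose responses.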

Sequence of human NAMPT (P43490 whole entry): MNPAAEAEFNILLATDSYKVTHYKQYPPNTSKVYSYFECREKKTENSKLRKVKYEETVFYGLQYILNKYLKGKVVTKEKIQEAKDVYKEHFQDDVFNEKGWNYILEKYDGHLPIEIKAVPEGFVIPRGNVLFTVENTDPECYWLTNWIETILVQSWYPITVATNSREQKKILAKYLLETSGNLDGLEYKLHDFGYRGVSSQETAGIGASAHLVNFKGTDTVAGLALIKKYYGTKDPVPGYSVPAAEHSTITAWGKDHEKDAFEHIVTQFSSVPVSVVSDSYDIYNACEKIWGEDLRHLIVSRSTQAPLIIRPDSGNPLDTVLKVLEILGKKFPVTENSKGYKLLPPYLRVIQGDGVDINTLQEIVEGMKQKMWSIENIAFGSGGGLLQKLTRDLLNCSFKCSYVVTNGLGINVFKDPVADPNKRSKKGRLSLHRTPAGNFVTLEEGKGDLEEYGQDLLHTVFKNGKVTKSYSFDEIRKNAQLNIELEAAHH

| AC1.4 Human [µM] | EC50 [µM] | Compound |
| --- | --- | --- |
| 1.30 | 12 | C[C@H](NC(=O)N1CCOCC1)c1ccc(NC(=O)OCc2ccc(Cl)cc2)cc1 [Compound 154, 4-chlorobenzyl (S)-(4-(1-(morpholine-4-carboxamido)ethyl)phenyl)carbamate] |
| 0.09 | 2.93 | CC(C)C(=O)N1CCC2(CC(Cc3ccc(NC(=O)OCc4cnco4)cc3F)C2)C1 (stereo not shown) [Compound 368, oxazol-5-ylmethyl (3-fluoro-4-((6-isobutyryl-6-azaspiro[3.4]octan-2-yl)methyl)phenyl)carbamate] |
| 1.47 | 28 | COc1ccc(COC(=O)Nc2ccc(CN3CCOCC3=O)cc2)cc1 [Compound 174, (4-methoxyphenyl)methyl N-{4-[(3-oxomorpholin-4-yl)methyl]phenyl}carbamate] |
| 1.82 | 7.14 | Cc1nn(C)c(C(=O)NCc2ccc(NC(=O)OCc3ccc(Cl)cc3)cc2)c1F [Compound 203, (4-chlorophenyl)methyl N-(4-{[(4-fluoro-2,5-dimethylpyrazol-3-yl)formamido]methyl}phenyl)carbamate] |
| 1.18 | 7.67 | CC1CN(C(=O)N[C@@H](C)c2ccc(NC(=O)OCc3ccc(Cl)cc3)cc2)C1 [Compound 144, (4-chlorophenyl)methyl N-{4-[(1S)-1-(3-methylazetidine-1-carbonylamino)ethyl]phenyl}carbamate] |
| 1.98 | 5.81 | O=C(Nc1ccc(Cc2ccncc2)cc1)OCc1ccc(Cl)cc1 [Compound 216, 4-chlorobenzyl (4-(pyridin-4-ylmethyl)phenyl)carbamate] |
| 13.92 | 34.8 | CCc1ncoc1C(=O)NCc1ccc(NC(=O)OCc2ccc(Cl)cc2)cc1 [Compound 347, (4-chlorophenyl)methyl N-(4-{[(4-ethyl-1,3-oxazol-5-yl)formamido]methyl}phenyl)carbamate] |
| 1.17 | 7.35 | Cc1cnoc1C(=O)N[C@@H](C)c1ccc(NC(=O)OCc2ccc(Cl)cc2)cc1 [Compound 142, (4-chlorophenyl)methyl N-{4-[(1S)-1-[(4-methyl-1,2-oxazol-5-yl)formamido]ethyl]phenyl}carbamate] |
| 1.09 | 2.23 | Cc1cnc(C(=O)NCc2ccc(NC(=O)OCc3ccc(Cl)cc3)cc2)cn1 [Compound 136, (4-chlorophenyl)methyl N-(4-{[(5-methylpyrazin-2-yl)formamido]methyl}phenyl)carbamate] |
| 4.19 | 46.5 | Cc1cnc(C(=O)NCc2ccc(NC(=O)OCc3ccc(Cl)cc3)cc2)o1 [Compound 294, (4-chlorophenyl)methyl N-(4-{[(5-methyl-1,3-oxazol-2-yl)formamido]methyl}phenyl)carbamate] |
| 0.08 | 10.8 | CC(C)C(=O)N1CCC2(CC(c3ccc(NC(=O)OCc4cnco4)cc3F)C2)C1 (single isomer, unassigned) [Compound 361] |
| 0.96 | 44.9 | COC(=O)N1CCC(CCc2ccc(NC(=O)OCc3cnco3)cc2)CC1 [Compound 120, methyl 4-(4-(((oxazol-5-ylmethoxy)carbonyl)amino)phenethyl)piperidine-1-carboxylate] |
| 1.50 | 22.4 | CC1(C(=O)NCc2ccc(NC(=O)OCc3ccc(Cl)cc3)cc2)COC1 [Compound 179, (4-chlorophenyl)methyl N-(4-{[(3-methyloxetan-3-yl)formamido]methyl}phenyl)carbamate] |
| 10.15 | 26.4 | CN([C@@H]1CCOC1)S(=O)(=O)c1ccc(NC(=O)OCc2ccc(Cl)cc2)cc1 [Compound 337, 4-chlorobenzyl (R)-(4-(N-methyl-N-(tetrahydrofuran-3-yl)sulfamoyl)phenyl)carbamate] |
| 0.85 | 1.94 | C[C@H](NC(=O)c1ccncc1)c1ccc(NC(=O)OCc2ccc(Cl)cc2)cc1 [Compound 105, (4-chlorophenyl)methyl N-{4-[(1S)-1-(pyridin-4-ylformamido)ethyl]phenyl}carbamate] |
| 0.14 | 16.1 | CN(C)C(=O)N1CCC(Cc2ccc(NC(=O)OCc3cnco3)cc2)C2CC21 (stereo not shown) [Compound 454, oxazol-5-ylmethyl (4-((2-(dimethylcarbamoyl)-2-azabicyclo[4.1.0]heptan-5-yl)methyl)phenyl)carbamate] |
| 3.88 | 3.45 | CC(C)(C)OC(=O)N1CC(OCc2ccc(NC(=O)OCc3ccc(Cl)cc3)cc2)C1 [Compound 288, tert-butyl 3-{[4-({[(4-chlorophenyl)methoxy]carbonyl}amino)phenyl]methoxy}azetidine-1-carboxylate] |
| 0.89 | 8.17 | Cc1nocc1C(=O)N(C)Cc1ccc(NC(=O)OCc2ccc(Cl)cc2)cc1 [Compound 108, (4-chlorophenyl)methyl N-(4-{[N-methyl-1-(3-methyl-1,2-oxazol-4-yl)formamido]methyl}phenyl)carbamate] |
| 2.29 | 10.6 | O=C(Nc1ccc(CNC(=O)c2ccnn2C2CCOCC2)cc1)OCc1ccc(Cl)cc1 [Compound 238, (4-chlorophenyl)methyl N-[4-({[2-(oxan-4-yl)pyrazol-3-yl]formamido}methyl)phenyl]carbamate] |
| 3.37 | 17 | CC(=O)N1CCC[C@@H](c2ccc(NC(=O)OCc3cnco3)cc2)C1 [Compound 381, oxazol-5-ylmethyl (S)-(4-(1-acetylpiperidin-3-yl)phenyl)carbamate] |
| 0.11 | 6.78 | COC(=O)N1CC2(CC(Cc3ccc(NC(=O)OCc4cnco4)cc3F)C2)C1 [Compound 396, methyl 6-(2-fluoro-4-(((oxazol-5-ylmethoxy)carbonyl)amino)benzyl)-2-azaspiro[3.3]heptane-2-carboxylate] |
| 2.98 | 14.9 | C[C@H](NC(=O)C1CC1)c1ccc(NC(=O)OCc2cnco2)cc1 [Compound 266, 1,3-oxazol-5-ylmethyl N-{4-[(1S)-1-(cyclopropylformamido)ethyl]phenyl}carbamate] |
| 0.07 | 4.73 | CN(C)S(=O)(=O)N1CCC(c2ccc(NC(=O)OCc3cnco3)cc2)CC1 [Compound 432, oxazol-5-ylmethyl (4-(1-(N,N-dimethylsulfamoyl)piperidin-4-yl)phenyl)carbamate] |
| 3.79 | 14.2 | O=C(Nc1ccc(CNC(=O)N2CCCCC2)cc1)OCc1ccc(Cl)cc1 [Compound 286, (4-chlorophenyl)methyl N-{4-[(piperidine-1-carbonylamino)methyl]phenyl}carbamate] |

| Compound | AC1.4 Human [µM] | EC50 [µM] |
| --- | --- | --- |
| CN1CCN(C(=O)Cc2ccc(NC(=O)OCc3ccc(Cl)cc3)cc2)C2CC21 (stereo not shown) [Compound 178, 4-chlorobenzyl (4-(2-(5-methyl-2,5-diazabicyclo[4.1.0]heptan-2-yl)-2-oxoethyl)phenyl)carbamate] | 1.50 | 14.7 |
| CC(=O)N1CC2CC(C1)C2Cc1ccc(NC(=O)OCc2cnco2)cc1 (stereo not shown) [Compound 438, oxazol-5-ylmethyl (4-((3-acetyl-3-azabicyclo[3.1.1]heptan-6-yl)methyl)phenyl)carbamate] | 0.04 | 2.7 |
